Active and inactive are the calls of the source.
Tests used:
[1] = biological target: Nuclear receptor subfamily 5 group A member 2 (Homo sapiens, UniProt O00482); assay type: functional, cell-based;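 note: HEK293T cells transfected with LRH-1 and a StAR promoter luciferase reporter; potency for inhibitors that lower LRH-1 driven reporter light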
[2] = nonselective StAR promoter luciferase inhibitors – cell-based, luminescence, luciferase reporter, counter-screen for LRH-1 inverse agonist project, dose response (AID 651969); assay type: functional
Steroidogenic factor 1 = Steroidogenic factor 1 (Homo sapiens, UniProt Q13285); experiment: Counterscreen for inverse agonists of the liver receptor homolog-1 (LRH-1; NR5A2): Luminescence-based cell-based high throughput dose response assay to identify inverse agonists of the Steroidogenic Factor 1 Nuclear Receptor (SF1; NR5A1).; assay type: functional
HEK293 [3] = experiment: cells; settings: Homo sapiens
HEK293 [4] = experiment: cells; settings: Homo sapiens; remark: listed apart in the source
[5] = biological target: T1, Adenosylmethionine-8-amino-7-oxononanoate aminotransferase (Mycobacterium tuberculosis, UniProt P9WQ81); experiment: Mycobacterium tuberculosis BioA enzyme inhibitor Measured in Biochemical System Using Plate Reader - 2163-02_Inhibitor_Dose_CherryPick_Activity.; assay type: functional, Mycobacterium tuberculosis UT205
T1 sequence (P9WQ81 whole entry): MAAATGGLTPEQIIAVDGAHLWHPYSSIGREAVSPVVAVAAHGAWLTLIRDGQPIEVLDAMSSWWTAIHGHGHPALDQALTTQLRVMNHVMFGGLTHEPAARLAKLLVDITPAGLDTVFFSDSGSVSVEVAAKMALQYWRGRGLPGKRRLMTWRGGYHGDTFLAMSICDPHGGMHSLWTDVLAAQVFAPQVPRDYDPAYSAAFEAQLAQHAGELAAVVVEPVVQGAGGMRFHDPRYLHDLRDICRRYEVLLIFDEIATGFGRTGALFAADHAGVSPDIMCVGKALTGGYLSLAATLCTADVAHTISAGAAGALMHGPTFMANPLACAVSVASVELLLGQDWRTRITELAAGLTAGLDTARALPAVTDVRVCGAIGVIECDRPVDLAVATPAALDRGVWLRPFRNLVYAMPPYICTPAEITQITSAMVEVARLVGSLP

[6] = biological target: 72 kDa type IV collagenase (Homo sapiens, UniProt P08253); experiment: Dose Response validation of uHTS RPN11 inhibitor hits using a MMP-2 Fluorescence assay.; assay type: functional
Prothrombin = Prothrombin (Bos taurus, UniProt P00735); experiment: thrombin protease inhibitors – biochemical, fluorescence polarization, uHTS hits, dose response (AID 602369); assay type: functional
[7] = biological target: 26S proteasome non-ATPase regulatory subunit 14 (Homo sapiens, UniProt O00487); experiment: inhibition of proteasome subunit RPN11 – biochemical, fluorescence polarization, uHTS hits, confirmation (AID 602368); assay type: functional
[8] = biological target: T2, Mitochondrial peptide methionine sulfoxide reductase (Bos taurus, UniProt P54149); assay type: functional;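 note: absorbance read-out, biochemical high-throughput dose-response screen for MsrA inhibitors, confirmatory; recombinant bovine MsrA coupled to E. coli TrxB with NADPH and selenocystamine; potency is for inhibitors of MsrA activity on DMSO substrate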
T2 sequence (P54149 whole entry): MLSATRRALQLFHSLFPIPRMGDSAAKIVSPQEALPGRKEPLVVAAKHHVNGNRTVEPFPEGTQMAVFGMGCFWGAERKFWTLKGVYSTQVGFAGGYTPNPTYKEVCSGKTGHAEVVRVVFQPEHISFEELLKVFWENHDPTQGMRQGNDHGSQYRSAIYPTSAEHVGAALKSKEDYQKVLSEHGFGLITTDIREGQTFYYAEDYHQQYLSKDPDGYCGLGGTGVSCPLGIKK

Beta Lactamase = Beta Lactamase (Pseudomonas aeruginosa, UniProt Q932Y6); experiment: BLA reporter interference, concentration series – BLA reporter cells, FRET fluorescence, artefact control for TLR9-MyD88 binding inhibitor project, dose response (AID 588341); assay type: cell-based;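 note: cell based assay in CHO-K1 cells stably expressing beta-lactamase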
CHO = CHO cell viability loss, potency – luminescence, cytotoxicity control for TLR9-MyD88 binding inhibitor project, dose response (AID 588339); assay type: functional, cell-based, hamster; settings: Cricetulus griseus;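 note: CHO cells stably coexpressing TLR9 and MyD88 fusions from primary screen; compound exposure lasted 48 hours before viability readout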
[9] = intracellular Trypanosoma cruzi inhibitors in host cells – cell-based, plate reader, cherry-pick samples, set 3, dose response (AID 651818); assay type: functional;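 note: compounds incubated with infected cells for about four days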
[10] = microbe, parasite or virus in culture; assay type: functional; settings: Mycobacterium tuberculosis
[11] = loss of viability in HepG2 cells – cell-based, CellTiter-Glo, cherry-picked, cytotoxicity control for Shn3 inhibitor project, dose response (AID 624134); assay type: functional
[12] = non-specific 3'UTR reporter inhibition in Clone20-Shn3RL – cell-based, Renilla luciferase, cherry-picked, counter-screen for Shn3 inhibitor project, dose response (AID 624133); assay type: functional
[13] = reduction of Shn3 3'UTR-driven luciferase in osteoblasts – cell-based, Clone20 osteoblasts, firefly luciferase, cherry-picked, dose response (AID 624132); assay type: functional;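 note: firefly luciferase luminescence from reporter carrying the Shn3 3'UTR in osteoblasts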
[14] = Luminescence Cell-Based Dose Retest to Confirm Inhibitors of Cancer Stem Cells. [Related pubchem assays (depositor defined):AID2717, AID2721]; assay type: functional; settings: Homo sapiens
Paired box protein Pax-8 = Paired box protein Pax-8 (Homo sapiens, UniProt Q06710); experiment: PAX8 transcriptional activity inhibition in RMG-I – RMG-I cells, luciferase, cherry-pick, dose response (AID 687027); assay type: functional, cell-based;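 note: luciferase reporter driven by Pax8 target thyroperoxidase promoter measured by SteadyGlo luminescence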
Chain of Paired box protein Pax-8 (Q06710 whole entry): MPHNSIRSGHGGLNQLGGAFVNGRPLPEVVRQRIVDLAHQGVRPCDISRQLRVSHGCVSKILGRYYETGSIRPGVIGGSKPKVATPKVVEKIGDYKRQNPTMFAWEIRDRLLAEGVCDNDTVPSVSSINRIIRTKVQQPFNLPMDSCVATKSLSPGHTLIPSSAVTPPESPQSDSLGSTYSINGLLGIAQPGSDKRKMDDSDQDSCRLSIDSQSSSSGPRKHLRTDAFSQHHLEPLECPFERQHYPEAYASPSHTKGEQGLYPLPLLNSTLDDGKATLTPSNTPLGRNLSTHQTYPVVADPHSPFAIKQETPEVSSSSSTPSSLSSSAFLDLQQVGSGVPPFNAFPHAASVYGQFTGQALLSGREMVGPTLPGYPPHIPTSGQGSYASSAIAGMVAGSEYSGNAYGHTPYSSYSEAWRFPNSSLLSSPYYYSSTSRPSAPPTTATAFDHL

Chain of Steroidogenic factor 1 (Q13285 whole entry): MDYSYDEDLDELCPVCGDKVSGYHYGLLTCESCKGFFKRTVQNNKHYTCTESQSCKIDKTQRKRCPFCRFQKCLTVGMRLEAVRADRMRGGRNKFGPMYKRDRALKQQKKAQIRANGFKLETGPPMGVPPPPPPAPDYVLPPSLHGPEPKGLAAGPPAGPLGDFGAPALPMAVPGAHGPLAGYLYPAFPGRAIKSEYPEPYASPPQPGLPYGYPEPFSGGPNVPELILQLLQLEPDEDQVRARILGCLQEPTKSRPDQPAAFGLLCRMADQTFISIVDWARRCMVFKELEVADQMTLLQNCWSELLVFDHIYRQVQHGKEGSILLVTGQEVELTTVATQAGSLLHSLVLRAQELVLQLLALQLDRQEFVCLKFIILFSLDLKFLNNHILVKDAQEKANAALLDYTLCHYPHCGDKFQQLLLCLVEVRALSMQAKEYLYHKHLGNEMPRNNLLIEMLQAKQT
Chain of Beta Lactamase (Q932Y6 whole entry, the tested form may be a part): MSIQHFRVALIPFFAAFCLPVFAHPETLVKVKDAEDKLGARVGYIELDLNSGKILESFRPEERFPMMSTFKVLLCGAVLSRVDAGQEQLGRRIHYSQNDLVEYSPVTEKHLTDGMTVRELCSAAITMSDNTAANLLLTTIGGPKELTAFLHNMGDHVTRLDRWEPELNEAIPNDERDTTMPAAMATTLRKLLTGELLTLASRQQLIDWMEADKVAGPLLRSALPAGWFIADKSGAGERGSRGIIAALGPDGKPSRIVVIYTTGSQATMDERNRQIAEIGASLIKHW
Chain of 26S proteasome non-ATPase regulatory subunit 14 (O00487 whole entry): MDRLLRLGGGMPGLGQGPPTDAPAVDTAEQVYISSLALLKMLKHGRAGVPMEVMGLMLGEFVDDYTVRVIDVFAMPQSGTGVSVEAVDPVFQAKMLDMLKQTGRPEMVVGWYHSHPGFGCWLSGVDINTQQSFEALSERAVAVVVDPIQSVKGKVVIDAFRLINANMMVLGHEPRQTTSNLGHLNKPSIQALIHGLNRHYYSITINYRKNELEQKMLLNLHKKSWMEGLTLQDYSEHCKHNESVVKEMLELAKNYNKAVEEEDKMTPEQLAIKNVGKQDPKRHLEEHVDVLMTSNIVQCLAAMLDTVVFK
Chain of Nuclear receptor subfamily 5 group A member 2 (O00482 whole entry): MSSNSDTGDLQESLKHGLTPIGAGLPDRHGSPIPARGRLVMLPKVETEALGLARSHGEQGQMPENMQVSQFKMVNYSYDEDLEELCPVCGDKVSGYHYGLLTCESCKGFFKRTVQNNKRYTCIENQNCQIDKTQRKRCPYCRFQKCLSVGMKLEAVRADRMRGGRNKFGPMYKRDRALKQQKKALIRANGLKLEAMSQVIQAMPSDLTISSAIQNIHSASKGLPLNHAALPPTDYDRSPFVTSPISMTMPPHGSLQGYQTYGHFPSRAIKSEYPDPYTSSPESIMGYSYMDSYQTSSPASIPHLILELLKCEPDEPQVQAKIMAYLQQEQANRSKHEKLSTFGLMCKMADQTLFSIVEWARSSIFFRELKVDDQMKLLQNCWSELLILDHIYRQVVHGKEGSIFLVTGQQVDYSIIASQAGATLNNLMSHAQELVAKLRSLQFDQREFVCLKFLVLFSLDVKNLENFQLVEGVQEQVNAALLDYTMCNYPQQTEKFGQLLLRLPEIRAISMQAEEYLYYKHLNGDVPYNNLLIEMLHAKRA
Chain of 72 kDa type IV collagenase (P08253 whole entry): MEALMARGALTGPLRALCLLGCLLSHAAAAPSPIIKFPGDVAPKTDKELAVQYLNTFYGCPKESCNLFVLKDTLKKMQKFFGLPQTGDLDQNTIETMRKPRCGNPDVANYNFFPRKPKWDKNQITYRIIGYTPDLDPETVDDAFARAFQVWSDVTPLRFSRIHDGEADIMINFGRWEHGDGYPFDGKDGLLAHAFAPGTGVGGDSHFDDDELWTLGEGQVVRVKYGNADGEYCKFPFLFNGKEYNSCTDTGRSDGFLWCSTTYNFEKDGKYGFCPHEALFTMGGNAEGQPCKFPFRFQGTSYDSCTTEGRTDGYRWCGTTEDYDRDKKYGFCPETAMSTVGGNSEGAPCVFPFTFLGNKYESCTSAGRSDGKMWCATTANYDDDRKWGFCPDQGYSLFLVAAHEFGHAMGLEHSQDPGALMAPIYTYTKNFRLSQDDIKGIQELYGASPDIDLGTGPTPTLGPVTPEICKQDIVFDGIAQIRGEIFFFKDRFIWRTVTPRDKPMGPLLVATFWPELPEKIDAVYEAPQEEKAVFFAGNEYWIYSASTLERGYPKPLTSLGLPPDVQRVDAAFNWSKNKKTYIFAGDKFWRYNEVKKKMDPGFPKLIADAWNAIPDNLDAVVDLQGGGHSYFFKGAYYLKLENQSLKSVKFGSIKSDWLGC

SMILES: CCCN(CC(=O)Nc1ccc(C(N)=O)cc1)CC(=O)Nc1ccccc1C
- IC50 [1]: 5.11 µM (active)
- IC50 [2]: 24.9 µM (inactive)
- IC50 (Steroidogenic factor 1): 2.88 µM (active)

SMILES: Cc1no[n+]([O-])c1COc1ccc(/C=N/n2nnnc2N)cc1
- IC50 [1]: 35.9 µM (inactive)
- IC50 [2]: 35.9 µM (inactive)
- IC50 (Steroidogenic factor 1): 12 µM (inactive)

SMILES: CC1(Cc2ccc(C(F)(F)F)nc2)C(=O)Nc2cc(-c3ccccc3Cl)ccc21 (stereo not given)
- EC50 (HEK293 [3]): > 59.6 µM (inactive)
- EC50 (HEK293 [4]): > 59.6 µM (inactive)

SMILES: CCN(CC)S(=O)(=O)c1ccc(NC(=O)c2ccc(Cl)nc2)cc1
- AC50 [5]: 6.89 µM (active)

SMILES: NS(=O)(=O)c1ccc(N/C=C\C(=O)c2ccc3ccccc3c2)cc1
- IC50 [6]: > 100 µM (inactive)
- IC50 (Prothrombin): 56.5 µM (active)
- IC50 [7]: 28.6 µM (active)

SMILES: O=C(C1=C(O)C(=O)N(CCCn2ccnc2)C1c1cccc(Br)c1)c1ccco1 (stereo not given)
- IC50 [8]: 155 µM (inactive)

SMILES: CN(C)C=O.CN(C)c1ccc(/C=C/c2nc3ccccc3c(=O)n2-c2ccc(C(=O)O)cc2)cc1
- IC50 (Beta Lactamase): 9 µM (active)
- IC50 (CHO): > 49.7 µM (inactive)

SMILES: Cc1noc(C)c1S(=O)(=O)Nc1ccc2c(c1)C(=O)N([C@H](C)CO)C[C@H](C)[C@H](CN(C)C(=O)Nc1ccc(C(F)(F)F)cc1)O2
- AC50 [9]: 4.97 µM (active)

SMILES: CC(C)Cc1nnc(NC(=O)Cc2cccs2)s1
- IC50 [6]: > 100 µM (inactive)
- IC50 (Prothrombin): 44.7 µM (active)
- IC50 [7]: 20.6 µM (active)

SMILES: Nc1cc(Cl)c2nonc2c1[N+](=O)[O-]
- CC50 [10]: 12 µM (active)
- EC50 (HEK293 [3]): > 59.7 µM (inactive)
- AC50 [11]: 29.6 µM (active)
- IC50 (Beta Lactamase): > 49.7 µM (inactive)
- AC50 [12]: 1.37 µM (active)
- EC50 (HEK293 [4]): > 59.7 µM (inactive)
- AC50 [13]: 5.37 µM (active)
- IC50 (CHO): 2.12 µM (active)

SMILES: C[C@@H]1CN([C@@H](C)CO)C(=O)Cc2cc(NC(=O)Nc3ccc(C(F)(F)F)cc3)ccc2O[C@@H]1CN(C)S(=O)(=O)c1ccc(Cl)cc1
- AC50 [9]: 3.51 µM (active)
- AC50 [14]: 1.28 µM (active)
- AC50 (Paired box protein Pax-8): 10.3 µM (active)

From ChEMBL document CHEMBL1201862, “PubChem BioAssay data set” (2004)
